# In patent US10034913B2, “Anti-angiogenic peptides and uses thereof” (Health Research, Inc., priority 2011, dated 2018):
# Bridges are numbered along the chain shown (N, C = ends). Where no end group is shown, it is not given here.
# Assays:
# HUVEC = test: Matrigel endothelial tube formation assay; type: cell-based, human; settings: for reproducible anti-angiogenic activity: tested at 10 and 100 μM; for anti-angiogenic activity, inhibition of tube formation by HUVEC in Matrigel: 10 uM, 18 hr, FIGS. 14, 19, 20; for inhibitory activity on endothelial tube formation: equi-molar concentrations of f-PSA and T-PSA
# Text: The 3-D model of human PSA, the amino acid sequence of the initial five candidate peptides, and their color-coded location on the exterior of the PSA protein molecule in aqueous solution, are presented in FIG. 8. Five PSA-mimetic peptides with >90% purity were acquired from GeneScript Corporation, Piscataway, N.J., and tested for anti-angiogenic activity against HUVECs in the Matrigel tube formation assay with intact PSA as the control (FIGS. 9 &10). Briefly, to perform these assays, 10^4 HUVEC cells are mixed with the PSA mimetic peptide, and, the mixture placed on top of a solidified, pre-poured Matrigel layer in a flat bottomed well of a multi-chambered plate, and the culture incubated for 16-18 hr to allow time for the endothelial cells to migrate and form tubular structures. At the conclusion of the incubation, digital images were made from the center of each culture to avoid bias, and 3-4 wells for each test condition were imaged. The images are processed under the Analyze 7.0 and “Angioquant” software packages, for imaging and quantification. The total length of tubular structures in the image is determined, and averaged over the replicate cultures. This method of quantification allows for accurate, unbiased measurement of tube lengths. Peptides having each of the peptide sequences shown in FIG. 8 are encompassed within the scope of the invention, including all modifications and substitutions to the sequences as described supra.
# The experimental endpoint, measured by digital image analysis, is the total area of the image comprised of endothelial cells (tubes). […] While the reason for the decrease in the amount of anti-angiogenic activity in this figure when the concentration of the peptides is increased from 10 to 100 μM is not clear, it may be related to a dosing response observed in this case. […] FIG. 10 presents the evaluation of anti-angiogenic activity for peptides #1 and #3 relative to the level of inhibition by native PSA, averaged over multiple experiments with different parental populations of HUVEC cells. Across multiple sets of experiments, both peptides inhibited the angiogenic activity of HUVEC by 35-40% relative to native PSA.
# FIG. 13 is a graphical representation of data showing anti-angiogenic activity of f-PSA, PSA-P3L, and PSA-P3C by inhibiting tube formation by HUVEC in a Matrigel assay. To produce the results summarized in FIG. 13, a 24-well tissue culture plate was coated with 200 ul/well of Matrigel and incubated for 30 min at 37 C. Approximately 80,000 HUVEC in 0.5 ml of media supplemented with f-PSA or PSA-P3L, PSA-P3C was applied on top of the Matrigel layer and cells were incubated for 18 hr at 37 C foe endothelial cell tube formation. Live cell images (4× magnification) were taken using Nikon Eclipse TE300 inverted microscope system and analyzed using Spot Advance software program. Five images were taken/well. The images were processed further using Analyze 7.0 (AnalyzeDirect, Inc., Overland Park, Kans.) and Angioquant v1.33 to obtain the average tube length for each image. Percent inhibition is expressed in relation to tube length in untreated control cells.
# [1] = tested on: ANG2 gene expression in HUVEC; test: ANG2 gene expression in HUVEC, Real-time QPCR; type: cell-based, human; settings: 10 uM, average of three experiments
# Procedure: FIG. 18 is a graphical representation of data showing modulation of ANG2 gene expression in HUVEC by f-PSA, PSA-P31 and PSA-P3C. To produce the results summarized in FIG. 18, nearly confluent monolayers of HUVEC were treated with 10 uM of f-PSA, PSA-P3L or PSA-P3C; RNA extracted and reverse transcribed. The c-DNA was amplified by Real-time QPCR using specific primer. The results shown are an average of three experiments. […] Accordingly, in one embodiment, the invention provides a method for inhibiting ANG2 expression in human endothelial cells comprising contacting the cells with one or more peptides of the invention.
# [2] = tested on: VEGF gene expression in HUVEC; test: VEGF gene expression in HUVEC, Real-time QPCR; type: cell-based, human; settings: 10 uM, average of three experiments
# Procedure: FIG. 17 is a graphical representation of data showing modulation of VEGF gene expression in HUVEC by f-PSA, PSA-P3L and PSA-P3C. To produce the results summarized in FIG. 17, nearly confluent monolayers of HUVEC were treated with 10 uM of f-PSA or PSA-P3L; RNA extracted and reverse transcribed. The c-DNA was amplified by Real-time QPCR using specific primers. The results shown are average of three experiments. […] The data represents an average of three experiments. […] Thus, in one embodiment, the invention provides a method for inhibiting VEGF expression in human endothelial cells comprising contacting the cells with one or more peptides of the invention.
# [3] = tested on: FAK gene expression in HUVEC; test: FAK gene expression in HUVEC, Real-time QPCR; type: cell-based, human; settings: 10 uM, average of three experiments
# Procedure: FIG. 16 is a graphical representation of data showing modulation of FAK gene expression in HUVEC by f-PSA and PSA-P3L. To produce the results summarized in FIG. 16, nearly confluent monolayers of HUVEC were treated with 10 uM of f-PSA or PSA-P3L; RNA extracted and reverse transcribed. The c-DNA was amplified by Real-time QPCR using specific primers. The results shown are the average of three experiments. […] The other experimental details are similar to all gene expression studies. Thus, in one embodiment, the invention provides a method for inhibiting FAK gene expression in human endothelial cells comprising contacting the cells with one or more peptides of the invention.
# [4] = tested on: FLT1 gene expression in HUVEC; test: FLT1 gene expression in HUVEC, Real-time QPCR; type: cell-based, human; settings: 10 uM, average of three experiments
# Procedure: FIG. 15 is a graphical representation of data showing modulation of FLT1 gene expression in HUVEC by f-PSA and PSA-P31. […] To obtain the data summarized in this figure, nearly confluent monolayers of HUVEC were treated with 10 uM of f-PSA or PSA-P3L; RNA extracted and reverse transcribed. The c-DNA was amplified by Real-time QPCR using specific primer. The results shown are average of three experiments.
# [5] = target: T1, Mu-His-Ser-Ser-Lys-Leu-Gln—AFC (Homo sapiens, UniProt P07288); test: Enzymatic activity of isolated PSA, hydrolysis of fluorogenic substrate; type: biochemical; settings: for enzymatic activity in the assay: fluorogenic substrate hydrolysis
# T1 construct: The 237 amino acid protein (25-261) were used in the studies that include PSA as described herein; from tissue; host or cells: human seminal plasma (f-PSA); human prostate cancer tissue specimens (T-PSA)
# Procedure: In particular, enzymatic activity of PSA isolated from human seminal plasma (f-PSA) and from human prostate cancer tissue specimens (Tissue-PSA: T-PSA) was evaluated routinely using a substrate (Mu-His-Ser-Ser-Lys-Leu-Gln—AFC) (SEQ ID NO:102) (Calbiochem) that is highly specific for PSA. […] PSA in the tissue microenvironment (T-PSA) is largely free and enzymatically active. T-PSA levels are lower in advanced prostate cancer than benign prostate, and T-PSA levels correlate with prognosis in prostate cancer, as well as in breast cancer; the higher the T-PSA level, the better the prognosis.
# (§1) Hydrolysis of the fluorogenic substrate was quantitated using a LS-45 Luminescence Spectrometer from Perkin Elmer) using the FL-Winlab® program. Human prostate cancer tissue specimens were obtained from the Pathology Resource Network at Roswell Park Cancer Institute under an IRB approved protocol.
# PSA = target: T2, PSA (Homo sapiens, UniProt P07288); test: Inhibition of PSA enzymatic activity by zinc; type: biochemical
# T2 construct: The 237 amino acid protein (25-261) were used in the studies that include PSA as described herein; from tissue; host or cells: human seminal plasma (f-PSA); human prostate cancer tissue specimens (T-PSA)
# Procedure: as §1
# (§2) Enzymatically active PSA, and PSA inactivated by incubation with Zinc^2+ [activity inhibited>75% by 5.0 μM of Zinc, inset FIG. 4] were compared for their respective effects on expression of genes involved in angiogenesis/vasculogenesis in HUVEC cells.
# HUVEC cells = test: Expression of angiogenesis/vasculogenesis genes in HUVEC, enzymatically active vs inactive PSA; type: cell-based, human
# Procedure: as §2
# PC-3M cells [6] = test: Gene expression array and QPCR analysis of PC-3M cells treated with PSA; type: cell-based, human
# Text: (§3) PSA purified to homogeneity from human seminal plasma is enzymatically active, and free of contaminating hk2, and complexes with carrier proteins/chaperones (Bindukumar, B., et al., J Chromatogr B Analyt Technol Biomed Life Sci, 2004. 813(1-2): p. 113-20).
# PC-3M xenografts = test: Growth of PC-3M xenografts in nude mice; type: in vivo; settings: PSA administered in the tumor vicinity; control animals 267 mm^3
# Text: as §3
# PC-3M cells [7] = test: Proteomic profiling (2D-DIGE, HPLC-MS/MS) of PC-3M cells treated with PSA; type: cell-based, human; settings: PSA treatment
# Text: This Example provides an illustration of proteomic profiling of the effect of PSA on human prostate cancer cells. In this regard, a proteomic approach was employed to identify proteins whose expression was modulated in PC-3M cells treated with PSA. […] Proteins from 26 gel spots were identified [FIG. 2]. […] Specificity of PSA modulation of differential expression of these genes in PC-3M cells was validated at the gene level by RT-QPCR [FIG. 3].
# PC-3M cells [8] = settings: cited from earlier work
# [9] = PC-3M cells versus LNCaP cells treated with 10 μM PSA
# T1 sequence (P07288 25-261): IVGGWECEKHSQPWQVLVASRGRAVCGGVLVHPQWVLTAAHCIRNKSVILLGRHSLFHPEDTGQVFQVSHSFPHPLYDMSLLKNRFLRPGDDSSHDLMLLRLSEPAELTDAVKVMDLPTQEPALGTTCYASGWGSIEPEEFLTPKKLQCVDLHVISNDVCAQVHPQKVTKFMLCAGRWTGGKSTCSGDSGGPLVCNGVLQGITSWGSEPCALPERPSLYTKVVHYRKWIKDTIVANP
# T2 sequence (P07288 25-261): as above
molecule,measurement,setting,value
Asn Asp Val Cys Ala Gln Val His Pro Gln Lys Val Thr Lys Phe Met Leu Cys Ala (Ac-NDVCAQVHPQKVTKFMLCA-NH2; disulfide 4-18 (inferred)) [PSA-P3C],"inhibition of HUVEC tube formation, cyclic versus linear peptide","HUVEC; at certain concentrations, FIG. 11",even more efficiently than linear peptide
same,ANG2 gene expression,[1],significantly inhibited
same,VEGF gene expression,[2],significantly down-regulate
same,FAK gene expression,[3],significantly down-regulates
GWGSIEPEEFLTPKKLQ [Peptide #2],reproducible anti-angiogenic activity,HUVEC,did not demonstrate reproducible anti-angiogenic activity
PSA-ACT Complex: f-PSA complexed with serine protease inhibitor alpha 1 anti-chymotrypsin (ACT),"anti-angiogenic activity, inhibition of tube formation by HUVEC in Matrigel",HUVEC,significant loss of anti-angiogenic activity
same,"anti-angiogenic activity, inhibition of tube formation by HUVEC in Matrigel",HUVEC; listed as PSA-ACT complexes,significantly reduced
"KNRFLRPGDDSSH [Peptide #1, amino acids 107-119 of PSA]","anti-angiogenic activity, inhibition of tube formation by HUVEC in Matrigel",HUVEC,significantly inhibit
same,inhibition of tubule formation,"HUVEC; 100 μM, FIG. 9",maximal inhibition
SEPCALPERPS [Peptide #5],reproducible anti-angiogenic activity,HUVEC,did not demonstrate reproducible anti-angiogenic activity
NDVAAQVHPQKVTKFMLAA [PSA-P3L],"anti-angiogenic activity, inhibition of tube formation by HUVEC in Matrigel",HUVEC,significantly inhibit
same,FLT1 gene expression,[4],effectively inhibit
same,ANG2 gene expression,[1],not significantly different from control
same,VEGF gene expression,[2],not significantly different from control
same,FAK gene expression,[3],not significantly different
GRWTGGKSTCS [Peptide #4],reproducible anti-angiogenic activity,HUVEC,did not demonstrate reproducible anti-angiogenic activity
T-PSA: PSA isolated from human prostate cancer tissue specimens,inhibitory activity on endothelial tube formation,HUVEC,equivalent inhibitory activity
same,enzymatic activity in the assay,[5],demonstrated enzymatic activity
same,enzymatic activity relative to f-PSA from seminal plasma,[5]; per microgram of protein,roughly 50%
[Cl-].[Cl-].[Zn+2] [zinc chloride],PSA activity inhibited,PSA; 5.0 μM of Zinc,> 75%
same,inhibition of enzymatic activity of f-PSA and T-PSA,PSA; pre-incubation with zinc chloride 5 μM,inhibited completely
PSA inactivated by incubation with Zinc^2+: PSA enzymatically inactivated by incubation with Zinc2+ (5.0 μM),"expression of blood vessel development genes FAK, FLT, KDR, TWIST1, Cathepsin D and P-38",HUVEC cells,equally effective
same,negative modulation of expression of pro-angiogenic growth factors bFGF and VEGF,HUVEC cells,equally effective
same,positive modulation of expression of IFN-γ,HUVEC cells,equally effective
same,inhibition of tube formation compared with native PSA,HUVEC; over the entire range of PSA concentrations studied,as inhibitory of tube formation as was native PSA
"f-PSA: PSA isolated from human seminal plasma, free and enzymatically active; 237 amino acid protein (residues 25-261)","expression of blood vessel development genes FAK, FLT, KDR, TWIST1, Cathepsin D and P-38",HUVEC cells,equally effective
same,negative modulation of expression of pro-angiogenic growth factors bFGF and VEGF,HUVEC cells,equally effective
same,positive modulation of expression of IFN-γ,HUVEC cells,equally effective
same,"anti-angiogenic activity, inhibition of tube formation by HUVEC in Matrigel",HUVEC,significant anti-angiogenic activity
same,"anti-angiogenic activity, inhibition of tube formation by HUVEC in Matrigel",HUVEC; listed as PSA,significantly inhibit
same,inhibitory activity on endothelial tube formation,HUVEC,equivalent inhibitory activity
same,FLT1 gene expression,[4],effectively inhibit
same,enzymatic activity in the assay,[5],demonstrated enzymatic activity
same,genes down-regulated (gene expression array),PC-3M cells [6]; [9],137
same,genes up-regulated (gene expression array),PC-3M cells [6]; [9],136
same,"expression of IFN-γ and interferon related genes incl. 2,5 oligo-adenylated synthetase-2 (QPCR)","PC-3M cells [6]; PC-3M cells, 10 μM PSA",up-regulated
same,"expression of uPA, VEGF, cysteine-rich angiogenic inducer-61, EphA2, TGF-β2 (QPCR)","PC-3M cells [6]; PC-3M cells, 10 μM PSA",significantly down-regulated
same,ANG2 gene expression,[1],significantly inhibited
same,VEGF gene expression,[2],significantly down-regulate
same,mean tumor volume,PC-3M xenografts,13 mm^3
same,proteins significantly changed (p<0.05) in abundance,PC-3M cells [7],41
same,FAK gene expression,[3],significantly down-regulates
same,effect on VEGF and IFN-γ gene expression and protein release,PC-3M cells [8],distinctly dose dependent
